Laboratory results as given in US10144730B2, “Inhibitors of c-Jun-N-terminal kinase (JNK)” (Dana-Farber Cancer Institute, Inc., priority 2011, dated 2018).

Key:
[1] = biological target: additional kinase targets; experiment: Follow-up enzymatic IC50 or Kd on potential additional kinase targets; conditions: further biochemical and binding assays
Excerpt: Scores were obtained from the profiling against a […] using Kinome Scan™ technology as illustrated in FIG. 11.
To complement the KiNativ profiling, the in vitro kinase selectivity of several key compounds was comprehensively evaluated by two complementary approaches: a kinase-binding assays against a panel of 442 distinct kinases using the KINOMEscan methodology (DiscoverX) and a standard radioactivity-based enzymatic assays against a panel of 124 kinases (The National Centre for Protein Kinase Profiling in Dundee). […] It was attempted to confirm all these potent binding targets using either an enzymatic kinase assay or through the measurement of a dissociation constant to the kinase in question.

c-Jun phosphorylation = experiment: Western blot of anisomycin-stimulated phosphorylation in HEK293-IL1R cells; assay type: cell-based
Experimental: FIGS. 16A and 16B depict Western blot results. […] Cell lysates were prepared, resolved by SDS-PAGE, and p-c-Jun (Ser63) and p-JNK were monitored by Western blot.
HEK-293 cells stably expressing Interleukin Receptor 1 (HEK293-IL1R) were cultured in Dulbecco's Modified Eagle's medium (DMEM) supplemented with 10% FBS, 2 mM glutamine and 1× antimycotic/antibiotic solution. Cells were serum starved for 18 h before incubation with DMSO or different inhibitors, stimulated with 2 μM anisomycin (Sigma) for 1 h, and lysates were clarified by centrifugation for 10 min at 16000 g and 4° C.
Rabbit polyclonal antibodies against total pan JNK isoforms ((#9252), phospho-pan JNK isoforms (Thr183/Tyr185), (#4668), total p38 (#9212) or phospho-p38 MAPK (Thr180/Tyr182), (4631 resp.), total c-Jun (#9165), phospho-c-Jun (Ser63) (#9261), and phospho-MSK1 (Ser376) (#9591) were from Cell Signalling technology.
Cell lysates (30 μg) were resolved by electrophoresis on SDS polyacrylamide gels (10%) or Novex 4-12% gradient gels, and electroblotted to nitrocellulose membranes. Membranes were blocked with 5% skimmed milk (w/v) in 50 mM Tris/HCl (pH 7.5) 0.15 M NaCl, and 0.1% (v/v) Tween (TBST Buffer). Primary antibodies were used at a concentration of 1 μg/ml, diluted in 5% skimmed milk in TBST, and incubated overnight at 4° C. […]

JNK3 = JNK3 (Homo sapiens, UniProt P53779); experiment: Biochemical JNK3 kinase inhibition (Z'-lyte format); conditions: Table 2
Chain of JNK3 (P53779 whole entry): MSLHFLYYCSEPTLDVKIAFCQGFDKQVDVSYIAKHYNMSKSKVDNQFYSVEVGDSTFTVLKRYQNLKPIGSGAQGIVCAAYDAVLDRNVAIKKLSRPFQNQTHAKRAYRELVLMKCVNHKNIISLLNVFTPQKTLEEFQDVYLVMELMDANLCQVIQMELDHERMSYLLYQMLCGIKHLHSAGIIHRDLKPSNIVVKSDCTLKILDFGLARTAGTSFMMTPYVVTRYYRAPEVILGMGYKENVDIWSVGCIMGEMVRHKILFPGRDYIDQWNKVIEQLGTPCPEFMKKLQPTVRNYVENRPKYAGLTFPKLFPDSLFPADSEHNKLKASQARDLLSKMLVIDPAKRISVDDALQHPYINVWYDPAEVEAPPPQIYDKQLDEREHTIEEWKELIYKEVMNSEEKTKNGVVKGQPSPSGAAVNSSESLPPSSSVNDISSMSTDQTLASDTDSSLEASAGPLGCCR

AKT2 = AKT2 (Homo sapiens, UniProt P31751); experiment: AKT2 follow-up enzymatic assay; assay type: biochemical; conditions: follow-up enzymatic assay (FIG. 12)
Chain of AKT2 (P31751 whole entry, species assumed): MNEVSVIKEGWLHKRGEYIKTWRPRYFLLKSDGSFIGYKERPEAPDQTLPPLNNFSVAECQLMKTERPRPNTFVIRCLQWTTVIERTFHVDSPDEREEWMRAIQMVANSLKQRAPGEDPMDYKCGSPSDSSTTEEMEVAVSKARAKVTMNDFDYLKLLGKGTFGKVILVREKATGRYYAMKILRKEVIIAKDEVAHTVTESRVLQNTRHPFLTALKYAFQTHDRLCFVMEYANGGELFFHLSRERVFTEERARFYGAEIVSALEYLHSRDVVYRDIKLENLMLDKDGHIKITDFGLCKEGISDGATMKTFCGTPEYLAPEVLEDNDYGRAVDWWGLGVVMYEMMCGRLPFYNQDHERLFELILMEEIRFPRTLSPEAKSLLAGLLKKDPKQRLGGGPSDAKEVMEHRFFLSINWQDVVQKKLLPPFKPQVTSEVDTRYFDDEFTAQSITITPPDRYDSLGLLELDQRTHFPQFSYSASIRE
Excerpt: (§1) This high in vitro selectivity however differed markedly from the large number of targets detected by KiNativ.

JNK1 = JNK1 (Homo sapiens, UniProt P45983); experiment: Biochemical JNK1 kinase inhibition (Z'-lyte format); conditions: Table 2
Chain of JNK1 (P45983 whole entry): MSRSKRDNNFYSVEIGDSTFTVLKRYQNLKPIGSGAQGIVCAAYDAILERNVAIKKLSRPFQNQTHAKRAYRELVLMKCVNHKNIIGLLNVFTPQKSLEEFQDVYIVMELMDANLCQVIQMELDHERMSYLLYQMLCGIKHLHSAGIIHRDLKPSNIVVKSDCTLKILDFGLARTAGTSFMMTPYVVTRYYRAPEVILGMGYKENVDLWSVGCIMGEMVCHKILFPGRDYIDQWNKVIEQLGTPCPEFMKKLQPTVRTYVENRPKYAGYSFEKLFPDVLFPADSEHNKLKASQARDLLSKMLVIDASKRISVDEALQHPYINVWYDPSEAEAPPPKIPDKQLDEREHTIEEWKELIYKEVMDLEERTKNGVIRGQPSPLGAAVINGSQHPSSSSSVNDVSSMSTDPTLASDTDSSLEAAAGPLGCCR

[2] = biological target: panel of 442 distinct kinases; experiment: KINOMEscan kinase-binding panel; conditions: screening concentration of 1 μM
JNK2 = JNK2 (Homo sapiens, UniProt P45984); experiment: Biochemical JNK2 kinase inhibition (Z'-lyte format); conditions: Table 2
Chain of JNK2 (P45984 whole entry): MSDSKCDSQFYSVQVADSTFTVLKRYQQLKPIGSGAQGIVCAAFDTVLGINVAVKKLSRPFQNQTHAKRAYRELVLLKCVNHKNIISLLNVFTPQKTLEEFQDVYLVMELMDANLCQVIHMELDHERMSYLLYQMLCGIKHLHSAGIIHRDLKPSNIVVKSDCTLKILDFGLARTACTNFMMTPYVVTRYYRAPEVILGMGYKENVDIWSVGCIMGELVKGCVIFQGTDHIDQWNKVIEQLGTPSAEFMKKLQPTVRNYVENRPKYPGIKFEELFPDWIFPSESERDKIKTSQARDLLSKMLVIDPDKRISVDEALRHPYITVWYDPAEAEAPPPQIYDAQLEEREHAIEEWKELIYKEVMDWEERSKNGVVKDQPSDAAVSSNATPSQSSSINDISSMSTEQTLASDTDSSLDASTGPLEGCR

IRAK1 = IRAK1 (Homo sapiens, UniProt P51617); experiment: IRAK1 biochemical kinase assay; conditions: biochemical / follow-up enzymatic assay; read-out: IC50 against IRAK1
Chain of IRAK1 (P51617 whole entry): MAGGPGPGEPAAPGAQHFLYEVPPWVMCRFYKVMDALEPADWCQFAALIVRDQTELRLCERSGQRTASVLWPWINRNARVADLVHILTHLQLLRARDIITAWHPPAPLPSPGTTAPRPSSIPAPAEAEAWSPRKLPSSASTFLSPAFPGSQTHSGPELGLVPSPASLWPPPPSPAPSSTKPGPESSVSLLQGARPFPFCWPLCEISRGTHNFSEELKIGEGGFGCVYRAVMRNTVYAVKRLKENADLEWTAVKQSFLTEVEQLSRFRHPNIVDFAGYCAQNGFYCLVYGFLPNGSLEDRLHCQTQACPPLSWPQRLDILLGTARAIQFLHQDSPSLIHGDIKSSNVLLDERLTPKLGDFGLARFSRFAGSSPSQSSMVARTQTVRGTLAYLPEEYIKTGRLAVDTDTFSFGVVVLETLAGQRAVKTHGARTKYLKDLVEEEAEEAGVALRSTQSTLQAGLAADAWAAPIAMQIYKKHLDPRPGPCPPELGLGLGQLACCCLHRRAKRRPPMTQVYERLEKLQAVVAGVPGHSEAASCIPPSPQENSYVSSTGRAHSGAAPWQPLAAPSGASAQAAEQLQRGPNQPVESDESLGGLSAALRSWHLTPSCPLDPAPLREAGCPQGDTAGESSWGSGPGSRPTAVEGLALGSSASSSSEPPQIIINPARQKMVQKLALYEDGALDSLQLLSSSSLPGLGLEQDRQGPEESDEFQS

HIPK4 = biological target: T1, HIPK4 (Homo sapiens, UniProt Q8NE63); experiment: HIPK4 follow-up enzymatic assay; assay type: biochemical; conditions: follow-up enzymatic assay (FIG. 12)
T1 sequence (Q8NE63 1-616): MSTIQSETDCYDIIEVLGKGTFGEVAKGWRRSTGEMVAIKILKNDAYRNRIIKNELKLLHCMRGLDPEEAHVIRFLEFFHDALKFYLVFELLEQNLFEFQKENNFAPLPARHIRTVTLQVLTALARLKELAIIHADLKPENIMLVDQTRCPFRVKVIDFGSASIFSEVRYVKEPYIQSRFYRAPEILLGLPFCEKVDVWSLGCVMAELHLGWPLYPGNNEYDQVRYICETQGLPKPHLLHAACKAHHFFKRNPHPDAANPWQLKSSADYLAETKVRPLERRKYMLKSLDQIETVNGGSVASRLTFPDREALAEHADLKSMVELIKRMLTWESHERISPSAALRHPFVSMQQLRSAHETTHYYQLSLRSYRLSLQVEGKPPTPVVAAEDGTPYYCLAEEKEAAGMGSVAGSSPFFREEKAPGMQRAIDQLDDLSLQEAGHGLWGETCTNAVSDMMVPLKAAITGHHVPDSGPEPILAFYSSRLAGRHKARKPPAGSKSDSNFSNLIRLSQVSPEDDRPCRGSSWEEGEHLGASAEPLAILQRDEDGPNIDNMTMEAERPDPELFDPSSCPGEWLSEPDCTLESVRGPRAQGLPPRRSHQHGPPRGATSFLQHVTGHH
Excerpt: as §1

SMILES | IC50 or Kd of any further target [1] [nM] | time for inhibition of JNK in cells to reach completion (c-Jun phosphorylation; HEK293-ILR1 cells (FIGS. 16A and 16B)) | reversal of inhibition of c-Jun phosphorylation after removal of inhibitor (washout) (c-Jun phosphorylation; HEK293-ILR1 cells, three hours treatment then washout) | IC50 (JNK3) [nM] | IC50 (AKT2) [nM] | IC50 (JNK1) [nM] | KINOMEscan S score (ratio number of kinases inhibited more than 90 percent) [2] | IC50 (JNK2) [nM] | IC50 (IRAK1) [nM] | IC50 (HIPK4) [nM]
Cc1cc(NC(=O)c2cccc(NC(=O)/C=C/CN(C)C)c2)ccc1Nc1nccc(-c2cccnc2)n1 [JNK-IN-8] | ≥ 1000 | approximately 3 hours | not reversed |  |  |  |  |  |  | 
CN(C)C/C=C/C(=O)Nc1cccc(C(=O)Nc2ccc(Nc3nccc(/C(C#N)=C4\Nc5ccccc5S4)n3)cc2)c1 [JNK-IN-12] |  |  |  | 11 | 89.9 | 13 | 0.025 | 11.3 | 37.6 | 57.1
